For one assay, the target named is T1, Recombinant human HDAC2 (Homo sapiens, UniProt Q92769).
T1 construct: Full length human HDAC2-FLAG was expressed in baculovirus infected Sf9 cells; FLAG (C); made in house; host or cells: Sf9 (baculovirus)
Briefly: Human HDAC enzyme inhibitor Fluor-de-Lys assay, HDAC2. The assay is classed as biochemical. The following applies: recombinant human HDAC2, Fluor-de-Lys assay. In short, it runs like this:
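Fluor-de-Lys format at room temperature (23° C.): compounds titrated 10-point, 1:3, preincubated with HDAC before substrate addition. Developer with excess HDAC inhibitor ends the reaction, and trypsin-liberated AMC fluorescence is the read-out.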

Another assay deals with T2, Recombinant human HDAC8 (Homo sapiens, UniProt Q9BY41).
T2 construct: purchased Enzo Life Sciences BML-SE145-0100
T2 sequence (Q9BY41 1-377): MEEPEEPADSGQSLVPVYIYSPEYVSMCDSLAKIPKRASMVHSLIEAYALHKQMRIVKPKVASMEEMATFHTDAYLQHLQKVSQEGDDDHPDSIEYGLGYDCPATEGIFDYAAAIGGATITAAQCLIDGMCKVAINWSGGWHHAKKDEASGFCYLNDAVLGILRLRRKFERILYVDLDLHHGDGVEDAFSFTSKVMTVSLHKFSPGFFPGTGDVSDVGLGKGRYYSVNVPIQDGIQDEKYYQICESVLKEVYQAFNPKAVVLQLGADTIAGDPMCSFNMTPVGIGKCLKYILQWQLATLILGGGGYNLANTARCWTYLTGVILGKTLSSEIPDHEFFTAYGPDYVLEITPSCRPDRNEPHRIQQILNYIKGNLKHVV
Briefly: Human HDAC enzyme inhibitor Fluor-de-Lys assay, HDAC8. It is filed as biochemical. To be noted: recombinant human HDAC8, Fluor-de-Lys assay.

The target of assay [1] is T3, Recombinant human HDAC3/SMRT heterodimer (Homo sapiens, UniProt O15379).
T3 construct: FLAG (C); made in house
Briefly: Human HDAC enzyme inhibitor Fluor-de-Lys assay, HDAC3/SMRT. It is filed as biochemical. To be noted: recombinant human HDAC3/SMRT, Fluor-de-Lys assay.

The subject of a further assay is KARN cells (Jurkat 2C4). Briefly: cells. The assay is classed as cell-based. To be noted: luciferase induction, 100% = 2 μM SAHA. In short, it runs like this:
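Luminescence (Steady-Glo, 10 min, room temperature) measured next day in KARN Jurkat 2C4 cells given compounds at up to 40 μM final with 0.4% DMSO. Percent activation normalised to DMSO (0%) and 2 μM SAHA (100%), fitted by 4-parameter curve.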

Setting [2] is: Homo sapiens, Jurkat, read-out: Karn EC50 (nM) 0.1% NHS, 0.1% normal human serum.
[3] abbreviates: Homo sapiens, Jurkat, read-out: Karn EC50 (nM) 5% NHS, 5% normal human serum.
[4] abbreviates: read-out: Karn EC50 (nM) 0.1% NHS, 0.1% normal human serum.
Setting [5] is: read-out: Karn EC50 (nM) 5% NHS, 5% normal human serum.

pIC50: −log10 of the molar value. Like-named read-outs stand apart in the source and are kept apart here. Bounds are passed on as bounds.

T1 sequence (Q92769 whole entry): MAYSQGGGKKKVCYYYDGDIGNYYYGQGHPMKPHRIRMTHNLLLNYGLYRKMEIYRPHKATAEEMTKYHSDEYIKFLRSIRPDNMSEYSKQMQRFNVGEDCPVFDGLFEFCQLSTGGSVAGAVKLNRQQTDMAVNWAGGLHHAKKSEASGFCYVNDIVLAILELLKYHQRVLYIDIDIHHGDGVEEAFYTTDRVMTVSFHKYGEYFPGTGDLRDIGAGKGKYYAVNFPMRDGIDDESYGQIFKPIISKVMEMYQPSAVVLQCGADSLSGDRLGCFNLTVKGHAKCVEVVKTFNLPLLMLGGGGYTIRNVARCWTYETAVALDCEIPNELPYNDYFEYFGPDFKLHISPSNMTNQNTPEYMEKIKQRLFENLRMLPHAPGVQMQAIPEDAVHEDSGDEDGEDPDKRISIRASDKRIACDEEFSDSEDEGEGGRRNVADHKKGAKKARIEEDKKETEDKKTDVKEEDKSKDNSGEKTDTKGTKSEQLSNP
T3 sequence (O15379 whole entry): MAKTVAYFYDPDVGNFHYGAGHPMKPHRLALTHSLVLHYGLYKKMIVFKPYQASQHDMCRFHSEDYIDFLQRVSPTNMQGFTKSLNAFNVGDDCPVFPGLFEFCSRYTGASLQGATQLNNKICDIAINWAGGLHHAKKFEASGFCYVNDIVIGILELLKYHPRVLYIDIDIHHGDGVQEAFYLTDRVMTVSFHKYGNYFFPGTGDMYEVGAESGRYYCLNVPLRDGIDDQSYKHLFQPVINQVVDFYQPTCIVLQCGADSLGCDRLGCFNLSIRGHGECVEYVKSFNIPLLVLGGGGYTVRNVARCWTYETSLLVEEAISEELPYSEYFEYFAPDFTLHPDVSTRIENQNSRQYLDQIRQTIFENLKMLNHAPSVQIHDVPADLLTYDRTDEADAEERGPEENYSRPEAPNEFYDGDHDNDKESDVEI
T3 sequence (Q9Y618 1-899 partner limits assumed): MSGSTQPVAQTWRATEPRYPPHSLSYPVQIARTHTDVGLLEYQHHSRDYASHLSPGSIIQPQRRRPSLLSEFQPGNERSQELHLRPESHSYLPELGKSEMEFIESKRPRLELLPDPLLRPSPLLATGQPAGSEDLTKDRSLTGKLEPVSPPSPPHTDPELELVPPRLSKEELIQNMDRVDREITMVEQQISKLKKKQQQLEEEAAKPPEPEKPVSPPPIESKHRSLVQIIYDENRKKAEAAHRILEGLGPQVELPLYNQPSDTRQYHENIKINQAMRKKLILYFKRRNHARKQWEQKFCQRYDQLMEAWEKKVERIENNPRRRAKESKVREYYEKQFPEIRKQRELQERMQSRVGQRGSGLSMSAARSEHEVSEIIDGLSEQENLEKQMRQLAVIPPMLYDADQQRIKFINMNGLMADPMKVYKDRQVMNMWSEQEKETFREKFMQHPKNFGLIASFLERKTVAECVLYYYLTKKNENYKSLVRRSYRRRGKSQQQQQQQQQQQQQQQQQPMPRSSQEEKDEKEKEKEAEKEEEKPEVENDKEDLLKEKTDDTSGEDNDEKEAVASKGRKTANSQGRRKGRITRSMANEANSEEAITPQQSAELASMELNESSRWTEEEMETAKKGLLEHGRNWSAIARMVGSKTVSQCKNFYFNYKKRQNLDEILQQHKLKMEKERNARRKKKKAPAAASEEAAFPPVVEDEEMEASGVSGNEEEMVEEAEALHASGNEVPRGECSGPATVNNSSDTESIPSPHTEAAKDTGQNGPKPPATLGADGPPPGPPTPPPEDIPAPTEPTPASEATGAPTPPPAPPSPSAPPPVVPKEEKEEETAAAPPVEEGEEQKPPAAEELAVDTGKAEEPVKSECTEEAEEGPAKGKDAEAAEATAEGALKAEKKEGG

On to `CCC(=O)CCCCC[C@H](NC(=O)C1CC12CCOCC2)c1ncc(-c2cc3ccc(C)nc3cc2OC)[nH]1` (single isomer, unassigned) [Compound 407], for which the pIC50 on Recombinant human HDAC2 is 7.69; on Recombinant human HDAC8, less than 6.05; in assay [1], 8.43. In addition, the EC50 with KARN cells (Jurkat 2C4) (setting [2]) worked out at 336 nM; with KARN cells (Jurkat 2C4) (setting [3]), 977 nM.
Consider `CCC(=O)CCCCC[C@H](NC(=O)C1CC12CCOCC2)c1ncc(-c2cc3ccc(C)nc3cc2OC)o1` (single isomer, unassigned) [Compound 409], for which the pIC50 was 7.00 on Recombinant human HDAC2 and less than 6.05 at Recombinant human HDAC8. The figures for the EC50 in the assay with KARN cells (Jurkat 2C4) (setting [2]) and in the assay with KARN cells (Jurkat 2C4) (setting [3]) were 811 nM and 1860 nM, respectively.
On to `CCC(=O)CCCCC[C@H](NC(=O)C1CC12CCOCC2)c1ncc(-c2cc3ccc(C)nc3cc2OC)o1` (single isomer, unassigned) [Compound 410], for which the pIC50 was 6.84 at Recombinant human HDAC2 and less than 6.05 on Recombinant human HDAC8. The EC50 with KARN cells (Jurkat 2C4) (setting [4]) came out at 663 nM; in the assay with KARN cells (Jurkat 2C4) (setting [5]), 1390 nM.
As for `CCC(=O)CCCCC[C@H](NC(=O)C1CC12CCOCC2)c1ncc(-c2cc3ccc(C)nc3cc2OC)[nH]1` (single isomer, unassigned) [Compound 413], the pIC50 was 6.81 on Recombinant human HDAC2, less than 6.05 on Recombinant human HDAC8 and 7.21 in assay [1]. Besides, the EC50 in the assay on KARN cells (Jurkat 2C4) (setting [4]) was 348 nM; in the assay on KARN cells (Jurkat 2C4) (setting [5]) it was 1270 nM.
As for `CCC(=O)CCCCCC(NC(=O)C1CCC2(CC1)OC(=O)c1ncccc12)c1nnc(-c2cc3ccccc3nc2OC)o1` (stereo not drawn) [Compound 365], the pIC50 at Recombinant human HDAC2 was 6.68; at Recombinant human HDAC8, 4.55; in assay [1], 7.63. In addition, the EC50 in the assay with KARN cells (Jurkat 2C4) (setting [2]) is 1550 nM; with KARN cells (Jurkat 2C4) (setting [3]), 3830 nM.
On the same counts, the results for `CCC(=O)CCCCC[C@H](NC(=O)[C@H]1CC[C@@]2(CC1)OC(=O)c1cccnc12)c1nnc(-c2cc3ccccc3nc2OC)o1` [Compound 366] are 6.49, less than 4.35, 7.43, 1500 nM and 5360 nM.
On the same counts, the results for `CCC(=O)CCCCC[C@H](NC(=O)[C@H]1CC[C@]2(CC1)OC(=O)c1ncccc12)c1nnc(-c2cc3ccccc3nc2OC)o1` [Compound 367] are 7.17, 4.67, 7.97, 1330 nM and 4490 nM.
On the same counts, the results for `CCC(=O)CCCCC[C@H](NC(=O)[C@H]1CC[C@]2(CC1)OC(=O)c1cccnc12)c1nnc(-c2cc3ccccc3nc2OC)o1` [Compound 368] are 6.83, 4.66, 7.69, 1570 nM and 5240 nM.
As to `CCC(=O)CCCCC[C@H](NC(=O)C1=NOC2(CCN(C(C)C)CC2)C1)c1nnc(-c2cc3ccccc3nc2OC)o1` [Compound 369], the results for the pIC50 on Recombinant human HDAC2 and on Recombinant human HDAC8 were 7.17 and 4.70, respectively. Further, the EC50 was 804 nM with KARN cells (Jurkat 2C4) (setting [2]) and 1680 nM in the assay with KARN cells (Jurkat 2C4) (setting [3]).
Consider `CCC(=O)CCCCC[C@H](NC(=O)C1=NOC2(CCN(C)CC2)C1)c1nnc(-c2cc3ccccc3nc2OC)o1` [Compound 370], for which the pIC50 at Recombinant human HDAC2 was 7.38; at Recombinant human HDAC8, 5.06; in assay [1], 8.05. Moreover, the EC50 with KARN cells (Jurkat 2C4) (setting [2]) stood at 752 nM; with KARN cells (Jurkat 2C4) (setting [3]), 1430 nM.
Regarding `CCC(=O)CCCCC[C@H](NC(=O)C1=NOC2(CCN(S(C)(=O)=O)CC2)C1)c1nnc(-c2cc3ccccc3nc2OC)o1` [Compound 371], the figures for the pIC50 at Recombinant human HDAC2 and on Recombinant human HDAC8 were 6.54 and less than 4.35, respectively. Also, the results for the EC50 in the assay with KARN cells (Jurkat 2C4) (setting [2]) and in the assay with KARN cells (Jurkat 2C4) (setting [3]) were 5000 nM and 6040 nM, respectively.
As for `CCC(=O)CCCCC[C@H](NC(=O)[C@H]1CC[C@@]2(CC1)OC(=O)c1ccncc12)c1ncc(-c2ccccc2)[nH]1` [Compound 372], the pIC50 at Recombinant human HDAC2 is 6.38; on Recombinant human HDAC8 it was 5.11; in assay [1], 7.85. For the same molecule, the EC50 in the assay on KARN cells (Jurkat 2C4) (setting [2]) stood at 2650 nM; with KARN cells (Jurkat 2C4) (setting [3]), 5250 nM.
The matching figures for `CCC(=O)CCCCC[C@H](NC(=O)[C@H]1CC[C@@]2(CC1)OC(=O)c1cnccc12)c1ncc(-c2ccccc2)[nH]1` [Compound 373]: 6.37, 5.18, 7.73, 1650 nM and 5340 nM.
Turning to `CCC(=O)CCCCC[C@H](NC(=O)[C@H]1CC[C@@]2(CC1)OC(=O)c1ncccc12)c1ncc(-c2ccccc2)[nH]1` [Compound 374], the values for the pIC50 (on Recombinant human HDAC2; at Recombinant human HDAC8; in assay [1]) were 6.37, 5.09 and 7.80, respectively. The EC50 stood at 2580 nM in the assay on KARN cells (Jurkat 2C4) (setting [2]) and 5400 nM in the assay with KARN cells (Jurkat 2C4) (setting [3]).
The matching figures for `CCC(=O)CCCCC[C@H](NC(=O)[C@H]1CC[C@@]2(CC1)OC(=O)c1cccnc12)c1ncc(-c2ccccc2)[nH]1` [Compound 375]: 6.32, 5.05, 7.70, 1450 nM and 9330 nM.
On the same counts, the results for `CCC(=O)CCCCC[C@H](NC(=O)[C@H]1CC[C@]2(CC1)OC(=O)c1ccncc12)c1ncc(-c2ccccc2)[nH]1` [Compound 376] are 6.62, 5.31, 8.04, 1860 nM and 3680 nM.
For `CCC(=O)CCCCC[C@H](NC(=O)[C@H]1CC[C@]2(CC1)OC(=O)c1cccnc12)c1ncc(-c2ccccc2)[nH]1` [Compound 378], the pIC50 on Recombinant human HDAC2 was 6.66; on Recombinant human HDAC8, 5.53; in assay [1] it was 8.15. In addition, the EC50 in the assay on KARN cells (Jurkat 2C4) (setting [2]) is 1310 nM; in the assay with KARN cells (Jurkat 2C4) (setting [3]) it was 2990 nM.
The matching figures for `CCC(=O)CCCCC[C@H](NC(=O)C1=NOC2(CCN(C(C)C)CC2)C1)c1ncc(-c2ccccc2)[nH]1` [Compound 379]: 7.00, 5.48, 8.32, 472 nM and 771 nM.
As for `CCC(=O)CCCCC[C@H](NC(=O)C1=NOC2(CCN(C(C)=O)CC2)C1)c1ncc(-c2ccccc2)[nH]1` [Compound 380], the pIC50 is 6.49 at Recombinant human HDAC2, 5.20 on Recombinant human HDAC8 and 8.05 in assay [1]. The EC50 in the assay on KARN cells (Jurkat 2C4) (setting [2]) was determined as 1920 nM; in the assay on KARN cells (Jurkat 2C4) (setting [3]) it was 2410 nM.
The matching figures for `CCC(=O)CCCCC[C@H](NC(=O)C1=NOC2(CCN(C(=O)OC)CC2)C1)c1ncc(-c2ccccc2)[nH]1` [Compound 381]: 6.20, 5.13, 7.58, 2740 nM and 6410 nM.
The matching figures for `CCC(=O)CCCCC[C@H](NC(=O)C1=NOC2(CCN(C)CC2)C1)c1ncc(-c2ccccc2)[nH]1` [Compound 382]: 6.84, 5.18, 8.10, 665 nM and 1070 nM.
On the same counts, the results for `CCC(=O)CCCCC[C@H](NC(=O)C1=NOC2(CCN(S(C)(=O)=O)CC2)C1)c1ncc(-c2ccccc2)[nH]1` [Compound 383] are 6.37, 5.05, 7.78, 2620 nM and 3260 nM.
With `CCC(=O)CCCCC[C@H](NC(=O)CCN1C(=O)C(CC)=NC12CCOCC2)c1ncc(-c2ccccc2)[nH]1` [Compound 384], the pIC50 at Recombinant human HDAC2 was 6.81; on Recombinant human HDAC8, 5.05; in assay [1], 7.90. The EC50 with KARN cells (Jurkat 2C4) (setting [2]) was found to be 2220 nM; in the assay with KARN cells (Jurkat 2C4) (setting [3]), 2410 nM.
The matching figures for `CCC(=O)CCCCC[C@H](NC(=O)C1=NOC2(CCN(C)CC2)C1)c1ncc(-c2cc3ccc(=O)n(C)c3cc2F)o1` [Compound 386]: 7.26, less than 6.05, 7.91, 934 nM and 1060 nM.
As for `CCC(=O)CCCCC[C@H](NC(=O)[C@H]1CC12CCN(CC1CC1)CC2)c1ncc(-c2cc3ccc(=O)n(C)c3cc2F)o1` [Compound 400], the pIC50 on Recombinant human HDAC2 is 7.40; at Recombinant human HDAC8, less than 6.05. For the same molecule, the EC50 with KARN cells (Jurkat 2C4) (setting [2]) is 577 nM; with KARN cells (Jurkat 2C4) (setting [3]), 557 nM.

What is called pIC50 is the IC50 on a negative log10 scale, so that one unit is a factor of ten. What is called EC50 is the concentration giving half of the maximal effect.

The values above are taken from patent publication US12590099B2, “Inhibitors of histone deacetylase useful for the treatment or prevention of HIV infection” (Merck Sharp & Dohme LLC, priority 2018, dated 2026).
